# Data reported in patent US9505798B2, “Steroid compounds as RORyt modulators and uses thereof” (New York University, priority 2010, dated 2016).
# Legend:
# [1] = target: T1, VP16 (Human herpesvirus 1, UniProt P06492); assay: S2 cell VP16 luciferase reporter; type: cell-based, herpes simplex virus; settings: 10 μM, FIG. 1c
# T1 construct: herpes simplex virus VP16 (amino acids 413 to end); expressed in transfected cells
# Description: The Drosophila S2 cell line was originally purchased from Invitrogen and was maintained in Schneider's medium supplemented with 10% heat-inactivated bovine fetal calf serum and antibiotics (Invitrogen). Gal4 DNA binding domain (G4 DBD) corresponding to amino acids 1 through 147 of Gal4 protein was PCR amplified to make a fusion construct with mouse RORγt (amino acids 79 to the carboxyl terminal end) lacking its DNA binding domain. The resulting chimeric gene was subcloned into the copper inducible pMT/V5-His A vector (Invitrogen). In a similar manner, Gal4 fusion constructs were prepared with mouse RORα (amino acids 142 to end) or Drosophila DHR3 (amino acids 120 to end). Coding sequences for firefly luciferase (Promega) were PCR amplified and subcloned into pUAST vector containing Gal4 binding enhancer sequences. Renilla luciferase construct under the polIII promoter was obtained from Dr. Dasgupta's laboratory (NYU medical center). In order to generate stable cell lines, cells were co-transfected with pMT-G4 DBD-RORγt, pMT-G4 DBD-RORα, pMT-G4 DBD-DHR3, or pMT-G4 DBDVP16 and pHygro plasmids (Invitrogen) and screened for resistant colonies in the presence of hygromycin (0.3 mg/mL). […]
# [2] = test system: IL-17a production in human CD4+ T cells; assay: Human cord blood CD4+ T cells expressing murine ATP1a1, Th17 conditions; type: cell-based; settings: murine Na+/K+-ATPase α1 expressed, 10 μM
# Description: Blood samples were obtained from the New York Blood Center. Mononuclear cells were prepared from buffy coats from healthy adult donors or from cord blood, using FicollPAQUE gradients. CD4^+ T cells were magnetically selected (autoMACS, Miltenyi). Adult memory CD4+ T cell subsets were further purified as CD3^+CD4^+CD25^−CD45RO^+CCR6^+CD161^+ by cell sorting on a FACSAria (BD). Naive CD4^+ T cells were isolated from cord blood as CD3^+CD4^+CD45RA^+HLA^−DR^−CD25^−DAPI^−. Memory cells were activated with anti-CD3/CD28 coated beads (1 bead/cell) in T cell media (see above) supplemented with 100 U/mL IL-2 (Peprotech), 10 ng/mL IL-1β and 10 ng/mL IL-23 (eBioscience). Naive cells were activated with anti-CD3/CD28 beads and cultured with the same cytokines, and TGF-β (0, 0.1, 1, or, 10 ng/mL) (Peprotech), in XVIVO-20 (Lonza) media. […] Naive CD4+ T cells, cultured in XVIVO-20 media supplemented with 100 U/mL IL-2 (Peprotech), were transduced with RORαd-IRES-GFP or RORγt-IRES-GFP on day 1 and analyzed on day 6. GFP expressing cells were gated for analysis. DMSO or compounds were added 6-8 hours after the viral transduction.
# [3] = test system: experimental autoimmune encephalomyelitis (EAE); assay: Active EAE (MOG35-55/CFA) in C57BL/6 mice; type: in vivo, mouse
# [4] = test system: pre-differentiated mouse Th17 cells; assay: Pre-differentiated mouse Th17 cells from MOG-immunized mice, in vitro; type: cell-based; settings: expanded Th17 cells from immunized mice, 10 μM
# Description: Mononuclear cells were collected from draining lymph nodes of wild-type or IL-23RGFP knock-in heterozygous mice 7 days after MOG(35-55)/CFA injection.
# [5] = test system: RORγ LBD mutants (L290, C318, A494); assay: Random mutagenesis of RORγ LBD, digoxin resistance in S2 reporter; type: cell-based, mouse; settings: mutations at L290, C318 and A494
# T1 sequence (P06492 413-490): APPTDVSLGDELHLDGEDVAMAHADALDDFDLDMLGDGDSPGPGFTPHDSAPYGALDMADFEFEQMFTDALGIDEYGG
smiles,measurement,setting,value
C[C@H]1O[C@@H](O[C@H]2[C@@H](O)C[C@H](O[C@H]3[C@@H](O)C[C@H](O[C@H]4CC[C@@]5(C)[C@H](CC[C@@H]6[C@@H]5C[C@@H](O)[C@]5(C)[C@@H](C7=CC(=O)OC7)CC[C@]65O)C4)O[C@@H]3C)O[C@@H]2C)C[C@H](O)[C@@H]1O [Digoxin],effect on transcriptional activity of VP16,[1],no effect
same,IL-17a expression,[2],suppressed IL-17a production without affecting IFN-γ expression
same,EAE onset and severity of progression,[3]; IP daily from day 2,"not only delayed onset, but also reduced severity"
same,percentage of IFN-γ-producing Th1 cells infiltrating the spinal cord,[3]; compared to DMSO-treated mice,approximately the same
same,reduction of percentage of IL-17-producing T cells infiltrating the spinal cord,"[3]; compared to DMSO-treated mice, day 21",more than 50%
same,total number of mononuclear cells infiltrating the spinal cord,"[3]; mouse, in vivo",markedly reduced
same,IL-23R and IL-17a expression,[4],"inhibited both IL-23R (FIG. 4a) and IL-17a (FIG. 4b, bottom) expression without affecting IFN-γ expression"
same,sensitivity of mutant RORγ to inhibition,[5],much less sensitivity
